Experimental data taken from ChEMBL document CHEMBL1641539 (Bioorg Med Chem Lett, 2011).

Legend:
[1] = biological target: BDNF/NT-3 growth factors receptor (Homo sapiens) (UniProt Q16620); experiment: Inhibition of human TrkB at 10 uM after 60 mins by TR-FRET assay; values are per cent of control
[2] = tested on: Angiopoietin-1 receptor (Homo sapiens), Q02763 [Y897S]; experiment: Inhibition of human Tie2 Y897S mutant at 10 uM after 60 mins by TR-FRET assay; values are per cent of control
[3] = biological target: Serine/threonine-protein kinase tousled-like 2 (Homo sapiens) (UniProt Q86UE8); experiment: Inhibition of human TLK2 at 10 uM after 60 mins by TR-FRET assay; values are per cent of control
Sequence of Serine/threonine-protein kinase tousled-like 2 (Homo sapiens) (Q86UE8 whole entry, looked up): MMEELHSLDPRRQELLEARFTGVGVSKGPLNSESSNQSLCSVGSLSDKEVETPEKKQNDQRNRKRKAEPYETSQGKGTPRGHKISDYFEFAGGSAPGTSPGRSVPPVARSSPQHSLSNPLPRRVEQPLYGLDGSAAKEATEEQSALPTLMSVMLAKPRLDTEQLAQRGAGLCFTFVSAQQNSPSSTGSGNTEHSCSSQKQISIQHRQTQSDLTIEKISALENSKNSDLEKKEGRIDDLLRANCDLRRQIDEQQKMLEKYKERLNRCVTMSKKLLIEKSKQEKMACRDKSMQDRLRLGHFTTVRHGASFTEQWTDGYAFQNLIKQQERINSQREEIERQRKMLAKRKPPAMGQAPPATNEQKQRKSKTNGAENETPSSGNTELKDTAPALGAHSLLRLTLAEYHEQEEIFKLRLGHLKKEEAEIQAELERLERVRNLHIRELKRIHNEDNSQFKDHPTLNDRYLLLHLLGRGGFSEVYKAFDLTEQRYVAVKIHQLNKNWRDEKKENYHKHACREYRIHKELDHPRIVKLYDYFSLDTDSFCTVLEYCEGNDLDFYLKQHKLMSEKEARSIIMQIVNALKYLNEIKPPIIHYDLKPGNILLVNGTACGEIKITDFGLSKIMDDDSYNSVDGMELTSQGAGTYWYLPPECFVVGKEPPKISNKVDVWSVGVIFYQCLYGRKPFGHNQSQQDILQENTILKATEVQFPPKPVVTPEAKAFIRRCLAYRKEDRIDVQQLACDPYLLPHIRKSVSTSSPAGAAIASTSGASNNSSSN

[4] = biological target: SRSF protein kinase 1 (Homo sapiens) (UniProt Q96SB4); experiment: Inhibition of human SRPK1 at 10 uM after 60 mins by TR-FRET assay; values are per cent of control
[5] = biological target: Focal adhesion kinase 1 (Homo sapiens) (UniProt Q05397); experiment: Inhibition of human FAK at 10 uM after 60 mins by TR-FRET assay; values are per cent of control
[6] = biological target: Serine/threonine-protein kinase D1 (Homo sapiens) (UniProt Q15139); experiment: Inhibition of human PKCmu at 10 uM after 60 mins by TR-FRET assay; values are per cent of control
[7] = biological target: Tyrosine-protein kinase JAK3 (Homo sapiens) (UniProt P52333); experiment: Inhibition of human JAK3 at 10 uM after 60 mins by TR-FRET assay; settings: values are per cent of control
[8] = biological target: Serine/threonine-protein kinase Nek2 (Homo sapiens) (UniProt P51955); experiment: Inhibition of human NEK2 at 10 uM after 60 mins by TR-FRET assay; values are per cent of control
[9] = biological target: Serine/threonine-protein kinase BRSK2 (Homo sapiens) (UniProt Q8IWQ3); experiment: Inhibition of human BrSK2 at 10 uM after 60 mins by TR-FRET assay; values are per cent of control
[10] = biological target: MAP kinase-interacting serine/threonine-protein kinase 2 (Homo sapiens) (UniProt Q9HBH9); experiment: Inhibition of human Mnk2 at 10 uM after 60 mins by TR-FRET assay; values are per cent of control
[11] = biological target: Epidermal growth factor receptor (Homo sapiens) (UniProt P00533); experiment: Inhibition of human EGFR at 10 uM after 60 mins by TR-FRET assay; settings: values are per cent of control
Sequence of Epidermal growth factor receptor (Homo sapiens) (P00533 whole entry): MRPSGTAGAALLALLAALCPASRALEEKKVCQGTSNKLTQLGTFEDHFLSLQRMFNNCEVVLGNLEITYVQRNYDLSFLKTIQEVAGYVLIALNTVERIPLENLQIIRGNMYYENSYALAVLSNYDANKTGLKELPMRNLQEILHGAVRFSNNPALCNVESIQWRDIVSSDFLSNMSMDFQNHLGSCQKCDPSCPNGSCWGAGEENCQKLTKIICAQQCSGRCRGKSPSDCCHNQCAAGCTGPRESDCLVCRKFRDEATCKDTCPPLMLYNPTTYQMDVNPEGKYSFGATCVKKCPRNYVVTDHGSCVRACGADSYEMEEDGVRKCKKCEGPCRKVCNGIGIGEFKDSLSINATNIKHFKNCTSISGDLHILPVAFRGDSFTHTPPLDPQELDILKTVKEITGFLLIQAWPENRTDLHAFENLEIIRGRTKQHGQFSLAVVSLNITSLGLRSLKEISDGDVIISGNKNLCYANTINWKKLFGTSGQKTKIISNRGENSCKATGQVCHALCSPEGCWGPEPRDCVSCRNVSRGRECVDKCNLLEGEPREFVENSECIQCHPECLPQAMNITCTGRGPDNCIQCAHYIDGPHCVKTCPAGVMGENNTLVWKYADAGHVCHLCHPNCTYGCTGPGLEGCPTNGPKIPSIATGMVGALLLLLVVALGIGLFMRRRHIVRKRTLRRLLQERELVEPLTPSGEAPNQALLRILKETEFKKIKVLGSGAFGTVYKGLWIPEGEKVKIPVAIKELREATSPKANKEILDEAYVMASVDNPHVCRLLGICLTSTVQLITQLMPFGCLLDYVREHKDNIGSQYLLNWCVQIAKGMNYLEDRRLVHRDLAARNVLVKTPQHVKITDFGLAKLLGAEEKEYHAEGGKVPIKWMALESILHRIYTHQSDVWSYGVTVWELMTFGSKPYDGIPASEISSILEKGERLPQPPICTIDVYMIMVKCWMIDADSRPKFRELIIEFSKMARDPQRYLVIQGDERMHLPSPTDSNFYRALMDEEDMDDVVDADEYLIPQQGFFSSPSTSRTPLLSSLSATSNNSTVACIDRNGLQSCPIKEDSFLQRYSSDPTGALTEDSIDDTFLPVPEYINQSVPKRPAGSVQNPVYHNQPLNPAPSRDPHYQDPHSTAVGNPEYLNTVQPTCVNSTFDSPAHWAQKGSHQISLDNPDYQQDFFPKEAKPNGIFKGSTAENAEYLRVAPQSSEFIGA

[12] = biological target: Interleukin-1 receptor-associated kinase 4 (Homo sapiens) (UniProt Q9NWZ3); experiment: Inhibition of human IRAK4 at 10 uM after 60 mins by TR-FRET assay; settings: values are per cent of control
[13] = biological target: Inhibitor of nuclear factor kappa-B kinase subunit alpha (Homo sapiens) (UniProt O15111); experiment: Inhibition of human IKKalpha at 10 uM after 60 mins by TR-FRET assay; values are per cent of control
Sequence of Inhibitor of nuclear factor kappa-B kinase subunit alpha (Homo sapiens) (O15111 whole entry): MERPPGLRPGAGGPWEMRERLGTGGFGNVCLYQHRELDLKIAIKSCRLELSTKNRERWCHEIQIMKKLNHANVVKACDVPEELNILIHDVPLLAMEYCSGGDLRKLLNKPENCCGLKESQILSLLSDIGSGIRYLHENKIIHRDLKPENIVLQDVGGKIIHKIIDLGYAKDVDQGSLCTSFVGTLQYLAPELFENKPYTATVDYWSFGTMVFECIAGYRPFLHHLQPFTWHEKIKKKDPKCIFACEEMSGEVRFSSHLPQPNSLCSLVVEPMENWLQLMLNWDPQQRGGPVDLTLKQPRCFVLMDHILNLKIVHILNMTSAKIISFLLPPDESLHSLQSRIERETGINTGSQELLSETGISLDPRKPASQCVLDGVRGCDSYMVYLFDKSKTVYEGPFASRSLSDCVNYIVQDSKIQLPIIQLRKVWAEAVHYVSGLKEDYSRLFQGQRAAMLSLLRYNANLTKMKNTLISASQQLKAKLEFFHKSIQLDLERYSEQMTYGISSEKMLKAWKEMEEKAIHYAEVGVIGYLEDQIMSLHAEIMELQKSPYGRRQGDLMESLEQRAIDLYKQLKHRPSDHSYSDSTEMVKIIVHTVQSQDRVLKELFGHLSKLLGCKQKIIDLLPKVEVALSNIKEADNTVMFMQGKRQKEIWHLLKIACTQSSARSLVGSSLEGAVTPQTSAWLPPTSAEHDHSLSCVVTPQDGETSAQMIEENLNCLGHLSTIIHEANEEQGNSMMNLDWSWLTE

[14] = biological target: cAMP-dependent protein kinase catalytic subunit PRKX (Homo sapiens) (UniProt P51817); experiment: Inhibition of human PrKX at 10 uM after 60 mins by TR-FRET assay; values are per cent of control
[15] = biological target: Serine/threonine-protein kinase PAK 3 (Homo sapiens) (UniProt O75914); experiment: Inhibition of human PAK3 at 10 uM after 60 mins by TR-FRET assay; values are per cent of control
[16] = biological target: Ribosomal protein S6 kinase alpha-5 (Homo sapiens) (UniProt O75582); experiment: Inhibition of human MSK1 at 10 uM after 60 mins by TR-FRET assay; settings: values are per cent of control
[17] = biological target: Serine/threonine-protein kinase WNK3 (Homo sapiens) (UniProt Q9BYP7); experiment: Inhibition of human WNK3 at 10 uM after 60 mins by TR-FRET assay; values are per cent of control
[18] = tested on: Epidermal growth factor receptor (Homo sapiens), P00533 [L858R,T790M]; settings: 10 uM
Description: Inhibition of human EGFR T790M, L858R mutant at 10 uM after 60 mins by TR-FRET assay

[19] = biological target: Protein-tyrosine kinase 2-beta (Homo sapiens) (UniProt Q14289); experiment: Inhibition of human Pyk2 at 10 uM after 60 mins by TR-FRET assay; values are per cent of control
[20] = biological target: Serine/threonine-protein kinase MARK1 (Homo sapiens) (UniProt Q9P0L2); experiment: Inhibition of human MARK1 at 10 uM after 60 mins by TR-FRET assay; values are per cent of control
[21] = biological target: Ribosomal protein S6 kinase alpha-1 (Rattus norvegicus) (UniProt Q63531); experiment: Inhibition of rat Rsk1 at 10 uM after 60 mins by TR-FRET assay; values are per cent of control
[22] = biological target: Mitogen-activated protein kinase 14 (Homo sapiens, UniProt Q16539); experiment: Inhibition of human SAPK2a at 10 uM after 60 mins by TR-FRET assay; settings: values are per cent of control
[23] = biological target: Serine/threonine-protein kinase D2 (Homo sapiens) (UniProt Q9BZL6); experiment: Inhibition of human PKD2 at 10 uM after 60 mins by TR-FRET assay; values are per cent of control
Sequence of Serine/threonine-protein kinase D2 (Homo sapiens) (Q9BZL6 whole entry): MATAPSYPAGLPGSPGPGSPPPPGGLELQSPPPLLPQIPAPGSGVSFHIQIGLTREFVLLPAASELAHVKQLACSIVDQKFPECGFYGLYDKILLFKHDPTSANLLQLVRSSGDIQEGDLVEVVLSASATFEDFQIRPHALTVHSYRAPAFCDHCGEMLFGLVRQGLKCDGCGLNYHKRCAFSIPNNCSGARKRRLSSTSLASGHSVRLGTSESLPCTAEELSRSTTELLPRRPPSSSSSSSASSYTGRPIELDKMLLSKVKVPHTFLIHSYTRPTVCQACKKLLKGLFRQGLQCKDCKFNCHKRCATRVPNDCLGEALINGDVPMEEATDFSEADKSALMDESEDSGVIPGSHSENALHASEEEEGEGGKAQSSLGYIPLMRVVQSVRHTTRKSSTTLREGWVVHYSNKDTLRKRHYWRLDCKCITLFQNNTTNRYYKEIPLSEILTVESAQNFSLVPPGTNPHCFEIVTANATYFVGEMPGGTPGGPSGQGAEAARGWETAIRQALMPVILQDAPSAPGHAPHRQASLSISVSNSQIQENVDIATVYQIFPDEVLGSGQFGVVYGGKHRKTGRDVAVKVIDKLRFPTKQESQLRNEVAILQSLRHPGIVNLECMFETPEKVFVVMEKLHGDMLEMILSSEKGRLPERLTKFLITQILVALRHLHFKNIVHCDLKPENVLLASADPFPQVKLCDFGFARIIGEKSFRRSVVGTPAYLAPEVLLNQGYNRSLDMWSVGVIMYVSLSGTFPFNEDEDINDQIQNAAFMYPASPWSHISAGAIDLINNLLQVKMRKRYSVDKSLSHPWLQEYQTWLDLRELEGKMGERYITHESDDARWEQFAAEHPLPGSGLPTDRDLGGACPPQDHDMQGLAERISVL

[24] = biological target: Ephrin type-B receptor 1 (Homo sapiens) (UniProt P54762); experiment: Inhibition of human EphB1 at 10 uM after 60 mins by TR-FRET assay; values are per cent of control
[25] = biological target: Discoidin domain-containing receptor 2 (Homo sapiens) (UniProt Q16832); experiment: Inhibition of human DDR2 at 10 uM after 60 mins by TR-FRET assay; values are per cent of control
[26] = biological target: Serine/threonine-protein kinase 4 (Homo sapiens) (UniProt Q13043); experiment: Inhibition of human MST1 at 10 uM after 60 mins by TR-FRET assay; settings: values are per cent of control
[27] = biological target: Dual specificity mitogen-activated protein kinase kinase 4 (Mus musculus) (UniProt P47809); experiment: Inhibition of mouse MKK4 at 10 uM after 60 mins by TR-FRET assay; values are per cent of control
Sequence of Dual specificity mitogen-activated protein kinase kinase 4 (Mus musculus) (P47809 whole entry): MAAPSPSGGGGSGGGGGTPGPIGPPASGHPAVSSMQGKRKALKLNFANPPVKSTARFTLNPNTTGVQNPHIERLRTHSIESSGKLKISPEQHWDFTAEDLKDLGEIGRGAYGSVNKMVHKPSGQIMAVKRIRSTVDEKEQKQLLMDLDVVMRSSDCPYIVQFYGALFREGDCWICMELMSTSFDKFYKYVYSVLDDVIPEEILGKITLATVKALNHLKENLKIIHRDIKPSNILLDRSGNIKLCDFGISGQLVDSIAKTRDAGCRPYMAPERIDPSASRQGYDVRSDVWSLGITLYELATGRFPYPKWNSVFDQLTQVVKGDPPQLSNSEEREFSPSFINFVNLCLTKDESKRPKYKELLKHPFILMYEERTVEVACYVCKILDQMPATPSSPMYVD

[28] = biological target: cGMP-dependent protein kinase 1 (Homo sapiens) (UniProt Q13976); experiment: Inhibition of human PKG1beta at 10 uM after 60 mins by TR-FRET assay; values are per cent of control
[29] = biological target: Hepatocyte growth factor receptor (Homo sapiens) (UniProt P08581); experiment: Inhibition of human Met at 10 uM after 60 mins by TR-FRET assay; settings: values are per cent of control

Sequence of BDNF/NT-3 growth factors receptor (Homo sapiens) (Q16620 32-822 limits assumed): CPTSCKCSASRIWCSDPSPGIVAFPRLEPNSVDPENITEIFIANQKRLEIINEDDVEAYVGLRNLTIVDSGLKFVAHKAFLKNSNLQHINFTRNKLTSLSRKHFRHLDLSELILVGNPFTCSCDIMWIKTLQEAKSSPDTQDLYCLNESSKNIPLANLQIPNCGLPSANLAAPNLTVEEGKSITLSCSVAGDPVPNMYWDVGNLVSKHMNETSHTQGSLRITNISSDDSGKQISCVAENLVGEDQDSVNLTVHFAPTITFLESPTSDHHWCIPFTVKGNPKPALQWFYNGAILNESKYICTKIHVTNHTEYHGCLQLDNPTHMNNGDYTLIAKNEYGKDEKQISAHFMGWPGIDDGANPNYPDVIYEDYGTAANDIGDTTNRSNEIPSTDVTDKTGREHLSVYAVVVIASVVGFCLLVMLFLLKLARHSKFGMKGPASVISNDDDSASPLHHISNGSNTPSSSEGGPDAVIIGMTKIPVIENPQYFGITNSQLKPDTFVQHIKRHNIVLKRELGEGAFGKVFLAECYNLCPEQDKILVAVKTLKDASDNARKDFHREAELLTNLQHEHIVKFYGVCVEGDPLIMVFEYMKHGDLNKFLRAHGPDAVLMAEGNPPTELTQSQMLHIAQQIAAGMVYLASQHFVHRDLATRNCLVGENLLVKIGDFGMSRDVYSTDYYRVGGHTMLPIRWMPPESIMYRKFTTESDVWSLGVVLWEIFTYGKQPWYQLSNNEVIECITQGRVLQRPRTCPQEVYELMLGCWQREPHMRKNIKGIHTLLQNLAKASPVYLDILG

S=c1[nH]nc(-c2ccncc2)n1-c1ccc2ccccc2c1
residual activity [1]: 114%
residual activity [2]: 92%
residual activity [3]: 110%
residual activity [4]: 93%
residual activity [5]: 106%
residual activity [6]: 104%
residual activity [7]: 147%
residual activity [8]: 110%
residual activity [9]: 103%
residual activity [10]: 112%
residual activity [11]: 90%
residual activity [12]: 114%
residual activity [13]: 100%
residual activity [14]: 134%
residual activity [15]: 99%
residual activity [16]: 114%
residual activity [17]: 100%
inhibition [18]: 88%
residual activity [19]: 98%
residual activity [20]: 113%
residual activity [21]: 103%
residual activity [22]: 71%
residual activity [23]: 110%
residual activity [24]: 79%
residual activity [25]: 94%
residual activity [26]: 112%
residual activity [27]: 106%
residual activity [28]: 109%
residual activity [29]: 108%
